Experimental data as given in patent publication US10570179B2, “Substituted urea depsipeptide analogs as activators of the CLPP endopeptidase” (priority 2016, dated 2020).
Converted amounts (≈) assume the structure as drawn. Like-named read-outs stand apart in the source and are kept apart here. Numbered stars: 1 amine (or outer) side, 2 acyl side, 3 side chain; on linkers, the order of the positions; unused ones are H or OH. Bridge positions count the residues as written; N and C are the ends. Square brackets hold non-standard residues; d marks the D form. Peptide text beside a SMILES is read from it. * marks the point of attachment. Piperazine(2S-CO,4-Me) = CN1CCN[C@H](C(=O)O)C1; Phe(3-Me) = Cc1cccc(C[C@H](N)C(=O)O)c1; Pro(4S-Me) = C[C@@H]1CN[C@H](C(=O)O)C1; NH(4-Cl-2-F-phenyl) = Fc1cc(Cl)ccc1N*; Pro(4R-Me) = C[C@H]1CN[C@H](C(=O)O)C1; Hyp = O=C(O)[C@@H]1C[C@@H](O)CN1; NH(4-Et-phenyl) = CCc1ccc(N*)cc1; NH(4-Me-phenyl) = Cc1ccc(N*)cc1; aThr = C[C@H](O)[C@H](N)C(=O)O; Pip = O=C(O)[C@@H]1CCCCN1; X3 = c1cc2c(cc1N*)OCCO2; CO = O=C([*:1])[*:2]

Legend:
Solubility determination = type: physicochemical; details: for solubility kinetic at 10 min: 22 °C, aqueous buffer, kinetic from dmso stock
Method: Test compounds were synthesized and supplied by the Department of Chemical Biology and Therapeutics at St. Jude Children's Research Hospital (Memphis, Tenn.). LC-MS chromasolv grade acetonitrile (ACN) was purchased from Fisher Scientific (Loughborough, UK). LC-MS chromasolv grade formic acid was obtained from Sigma-Aldrich (St. Louis, Mo.). Milli-Q water as an ultrapure laboratory grade water was used in aqueous mobile phase.
Chromatographic separation was performed on an Acquity UPLC BEH C18 1.7 μm, 2.1×50 mm column (Waters Corporation, Milford, Mass.) using an Acquity ultra performance liquid chromatography system. The total flow rate was 0.9 mL/min. The sample injection volume was 10 μL. The UPLC column was maintained at 60° C. and the gradient program started at 90% A (0.1% formic acid in MilliQ H2O), changed to 70% A over 0.2 min, to 95% B (0.1% formic acid in ACN) over 1.4 minutes, held for 0.35 minutes, then to 90% A over 0.05 minutes.
Mass data was acquired with an Acquity SQD Mass Spectrometer. The mass spectrometer was operated in positive-ion mode with electrospray ionization. The conditions were as follows: capillary voltage 3.5 kV, cone voltage 30 V, source temperature 150° C., desolvation temperature 350° C., desolvation gas 500 L/hr, cone gas 25 L/hr. Data were acquired using Masslynx v. 4.1 and analyzed using the Quanlynx software suite. A full scan range from m/z=100-1000 in 0.2 s was used to acquire MS data. Both UV and Single ion recording mass spectrometry were used to determine the quantification of the samples.
Stock solutions were prepared by dissolving compounds into DMSO to yield a concentration of 10 mM. Stock solutions were stored at room temperature.
Calibration standards were made by adding stock solutions to DMSO for final concentrations of compounds at concentration of 100, 25, 6.25, 1.563, 0.391 and 0.098 μM.
Solubility test samples were made by adding stock solutions to 200 μL, of DPBS for final concentrations of compounds at 100 μM in a 96-well analytical plate (300 μL, maximum volume in each well). Samples were tested in triplicates. The plate was sealed, shaken at 600 rpm for 10 minutes, and then was centrifuged at 4000 rpm for 20 min at 22° C. 100 μL, of the supernatant was transferred to a new analytical 96-well plate and 10 μL, was injected onto the LCMS system.
Two calibration curves for solubility test samples were analyzed during the quantitation process. The linear regression of test compound peak areas was weighted by 1/x^2. […] Coefficient of determination (R^2) was used to evaluate the linearity of each calibration curve.

Plasma stability assay [1] = type: in vitro ADME, human
Method: (§1) The plasma stability property of early drug discovery compounds can influence the in vivo efficacy of the test compounds/drugs. Human and/or mouse plasma degradation is determined using multiple time points to monitor the rate of disappearance of the parent compound during incubation.
(§2) Sample preparation for plasma stability was modified from Di et al. (2005) Int. J. Pharm. 297(1-2): 110-119. A set of incubation times of 0, 3, 24, and 48 hour were used. DMSO stock solutions of test compounds were prepared at 10 mM concentration. 1.8 μL of each test compound was each added directly to 1.8 mL of human/mouse plasma to get the final concentration of 10 μM. This compound/matrix was mixed and 70 μL was transferred to 8 time points plates (each in triplicate wells). For the Time 0 plate, 210 μL of cold acetonitrile with internal standard (4 μg/mL warfarin) was added to each well and no incubation needed. For other seven time points' plate, the plate was incubated at 37° C. for required time, followed by quenching of the reaction by adding 210 μL of cold acetonitrile with internal standard (4 μg/ml warfarin) to each well. All of the plates were sealed and mixed well at 600 rpm for 10 min and were centrifuged at 4000 rpm for 20 min. The supernatants (120 μL) were transferred to analytical plates for analysis by LCMS. Conditions for Waters ACQUITY-UPLC-MS-UV system was described separately. The plasma stability was evaluated via the half-life from least-squares fit of the multiple time points based on first-order kinetics.

Plasma stability assay [2] = type: in vitro ADME, mouse
Method: as §1, §2

S. aureus ΔClpP = assay: Minimal inhibitory concentration, microbroth dilution; type: cell-based, Staphylococcus aureus; details: MIC; ClpP inactivated
Summary of the method: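 Growth inhibition was scored visually after overnight aerobic culture at 37 °C in CLSI-style microdilution plates. Inocula contained about 10^5 cfu/mL, and compound concentrations descended in twofold steps from 200 μM.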

[3] = solubility in DPBS, 100 μM test samples, LCMS, read-out: LCMS
[4] = plasma stability half-life, human plasma, 37° C.
[5] = plasma stability half-life, mouse plasma, 37° C.

| SMILES | μsol (μM) (Solubility determination) [µM] | solubility kinetic at 10 min (Solubility determination) [µM] | Human (Plasma stability assay [1]; human, 10 μM) [h] | Mouse (Plasma stability assay [2]; mouse, 10 μM) [h] | Minimal Inhibitory Concentrations (μM) S. aureus ΔClpP (S. aureus ΔClpP) [µM] | solubility kinetic at 10 min (Solubility determination; [3]) [µM] | μsol (μM) (Solubility determination; solubility) [µM] | Human (Plasma stability assay [1]; [4]) [h] | Mouse (Plasma stability assay [2]; [5]) [h] |
| --- | --- | --- | --- | --- | --- | --- | --- | --- | --- |
| CCc1ccc(NC(=O)N[C@@H](Cc2cccc(C)c2)C(=O)N[C@@H]2C(=O)N3C[C@H](O)C[C@H]3C(=O)N3CCCC[C@H]3C(=O)N[C@@H](C)C(=O)N3C[C@H](C)C[C@H]3C(=O)O[C@H]2C)cc1 [Compound 25, (S)-2-(3-(4-ETHYLPHENYL)UREIDO)-N-((2R,6S,8AS,14AS,16R,20S,21S,23AS)-16-HYDROXY-2,6,21-TRIMETHYL-5,8,14,19,23-PENTAOXOOCTADECAHYDRO-1H,5H,14H,19H-PYRIDO[2,1-I]DIPYRROLO[2,1-C:2′,1′-L][1]OXA[4,7,10,13]TETRAAZACYCLOHEXADECIN-20-YL)-3-(M-TOLYL)PROPANAMIDE] ({NH(4-Et-phenyl)-CO}-[Phe(3-Me)][aThr][Hyp][Pip]A[Pro(4R-Me)]; ester 2-C) | 9.0 ± 0.3 | 18.6 ± 1.17 (≈ 15.2 µg/mL) | >50 | >50 | >20 | – | – | – | – |
| Cc1cccc(C[C@H](NC(=O)Nc2ccc(Cl)cc2F)C(=O)N[C@H]2COC(=O)[C@@H]3C[C@@H](C)CN3C(=O)[C@H](C)NC(=O)[C@@H]3CCCCN3C(=O)[C@@H]3C[C@H](N)CN3C2=O)c1 [Compound 12, (S)—N-((2R,6S,8AS,14AS,16S,20S,23AS)-16-AMINO-2,6-DIMETHYL-5,8,14,19,23-PENTAOXOOCTADECAHYDRO-1H,5H,14H,19H-PYRIDO[2,1-I]DIPYRROLO[2,1-C:2′,1′-L][1]OXA[4,7,10,13]TETRAAZACYCLOHEXADECIN-20-YL)-2-(3-(4-CHLORO-2-FLUOROPHENYL)UREIDO)-3-(M-TOLYL)PROPANAMIDE] | 24.7 ± 3.7 | 37.5 ± 13 (≈ 30.9 µg/mL) | 38.58 | 18.63 | >20 | – | – | – | – |
| Cc1ccc(NC(=O)N[C@@H](Cc2cccc(C)c2)C(=O)N[C@@H]2C(=O)N3CCC[C@H]3C(=O)N3CCCC[C@H]3C(=O)N[C@@H](C)C(=O)N3C[C@@H](C)C[C@H]3C(=O)O[C@H]2C)cc1 [Compound 45, (S)-3-(M-TOLYL)-2-(3-(P-TOLYL)UREIDO)-N-((2S,6S,8AS,14AS,20S,21S,23AS)-2,6,21-TRIMETHYL-5,8,14,19,23-PENTAOXOOCTADECAHYDRO-1H,5H,14H,19H-PYRIDO[2,1-I]DIPYRROLO[2,1-C:2′,1′-L][1]OXA[4,7,10,13]TETRAAZACYCLOHEXADECIN-20-YL)PROPANAMIDE] ({NH(4-Me-phenyl)-CO}-[Phe(3-Me)][aThr]P[Pip]A[Pro(4S-Me)]; ester 2-C) | – | – | – | – | >20 | 44.5 ± 2.7 (≈ 35 µg/mL) | 44.7 ± 4.2 | >50 | >50 |
| Cc1cccc(C[C@H](NC(=O)Nc2ccc(Cl)cc2F)C(=O)N[C@@H]2C(=O)N3C[C@H](O)C[C@H]3C(=O)N3CCN(C)C[C@H]3C(=O)N[C@@H](C)C(=O)N3C[C@H](C)C[C@H]3C(=O)O[C@H]2C)c1 [Compound 31, (S)-2-(3-(4-CHLORO-2-FLUOROPHENYL)UREIDO)-N-((6AS,8R,12S,13S,15AS,17R,21S,23AS)-8-HYDROXY-2,13,17,21-TETRAMETHYL-6,11,15,20,23-PENTAOXOOCTADECAHYDRO-2H,6H,11H,15H-PYRAZINO[2,1-I]DIPYRROLO[2,1-C:2′,1′-L][1]OXA[4,7,10,13]TETRAAZACYCLOHEXADECIN-12-YL)-3-(M-TOLYL)PROPANAMIDE] ({NH(4-Cl-2-F-phenyl)-CO}-[Phe(3-Me)][aThr][Hyp][Piperazine(2S-CO,4-Me)]A[Pro(4R-Me)]; ester 2-C) | 54.7 ± 4.7 | 68.9 ± 8.9 (≈ 58.9 µg/mL) | >50 | >50 | >20 | – | – | – | – |
| Cc1ccc(NC(=O)N[C@@H](Cc2cccc(C)c2)C(=O)N[C@H]2COC(=O)[C@@H]3C[C@H](C)CN3C(=O)[C@H](C)NC(=O)[C@@H]3CCCCN3C(=O)[C@@H]3CCCN3C2=O)cc1 (stereo in doubt) [Compound 43, (S)—N-((2S,6S,8AS,14AS,20S,23AS)-2,6-DIMETHYL-5,8,14,19,23-PENTAOXOOCTADECAHYDRO-1H,5H,14H,19H-PYRIDO[2,1-I]DIPYRROLO[2,1-C:2′,1′-L][1]OXA[4,7,10,13]TETRAAZACYCLOHEXADECIN-20-YL)-3-(M-TOLYL)-2-(3-(P-TOLYL)UREIDO)PROPANAMIDE] | – | – | – | – | >20 | 42.2 ± 0.9 (≈ 32.6 µg/mL) | 49.8 ± 2.5 | >50 | 21.9 |
| Cc1cccc(C[C@H](NC(=O)Nc2ccc(Cl)cc2F)C(=O)N[C@H]2COC(=O)[C@@H]3C[C@@H](C)CN3C(=O)[C@H](C)NC(=O)[C@@H]3CN(C)CCN3C(=O)[C@@H]3CCCN3C2=O)c1 [Compound 13, (S)-2-(3-(4-CHLORO-2-FLUOROPHENYL)UREIDO)-3-(M-TOLYL)-N-((6AS,12S,15AS,17R,21S,23AS)-2,17,21-TRIMETHYL-6,11,15,20,23-PENTAOXOOCTADECAHYDRO-2H,6H,11H,15H-PYRAZINO[2,1-I]DIPYRROLO[2,1-C:2′,1′-L][1]OXA[4,7,10,13]TETRAAZACYCLOHEXADECIN-12-YL)PROPANAMIDE] ({NH(4-Cl-2-F-phenyl)-CO}-[Phe(3-Me)]SP[Piperazine(2S-CO,4-Me)]A[Pro(4R-Me)]; ester 2-C) | 38.3 ± 2.2 | 40.1 ± 4.6 (≈ 33.1 µg/mL) | 67.3 ± 13.7 | 10.74 ± 0.8 | >20 | – | – | – | – |
| Cc1cccc(C[C@H](NC(=O)Nc2ccc3c(c2)OCCO3)C(=O)N[C@@H]2C(=O)N3CCC[C@H]3C(=O)N3CCCC[C@H]3C(=O)N[C@@H](C)C(=O)N3C[C@H](C)C[C@H]3C(=O)O[C@H]2C)c1 [Compound 21, (S)-2-(3-(2,3-DIHYDROBENZO[B][1,4]DIOXIN-6-YL)UREIDO)-3-(M-TOLYL)-N-((2R,6S,8AS,14AS,20S,21S,23AS)-2,6,21-TRIMETHYL-5,8,14,19,23-PENTAOXOOCTADECAHYDRO-1H,5H,14H,19H-PYRIDO[2,1-I]DIPYRROLO[2,1-C:2′,1′-L][1]OXA[4,7,10,13]TETRAAZACYCLOHEXADECIN-20-YL)PROPANAMIDE] ({X3-CO}-[Phe(3-Me)][aThr]P[Pip]A[Pro(4R-Me)]; ester 2-C) | 36.8 ± 1.6 | 30.6 ± 0.7 (≈ 25.4 µg/mL) | >50 | >50 | >20 | – | – | – | – |
| Cc1ccc(NC(=O)N[C@@H](Cc2cccc(C)c2)C(=O)N[C@@H]2C(=O)N3C[C@H](O)C[C@H]3C(=O)N3CCCC[C@H]3C(=O)N[C@@H](C)C(=O)N3C[C@H](C)C[C@H]3C(=O)O[C@H]2C)cc1 [Compound 26, (S)—N-((2R,6S,8AS,14AS,16R,20S,21S,23AS)-16-HYDROXY-2,6,21-TRIMETHYL-5,8,14,19,23-PENTAOXOOCTADECAHYDRO-1H,5H,14H,19H-PYRIDO[2,1-I]DIPYRROLO[2,1-C:2′,1′-L][1]OXA[4,7,10,13]TETRAAZACYCLOHEXADECIN-20-YL)-3-(M-TOLYL)-2-(3-(P-TOLYL)UREIDO)PROPANAMIDE] ({NH(4-Me-phenyl)-CO}-[Phe(3-Me)][aThr][Hyp][Pip]A[Pro(4R-Me)]; ester 2-C) | – | – | – | – | >20 | 45.3 ± 1.89 (≈ 36.3 µg/mL) | 47.7 ± 0.4 | >50 | >50 |
